For 30 compounds, Ki results are on record in ChEMBL document CHEMBL4229358, “Synthesis of novel 4-functionalized 1,5-diaryl-1,2,3-triazoles containing benzenesulfonamide moiety as carbonic anhydrase I, II, IV and IX inhibitors” (Eur J Med Chem, 2018).

In general, Ki refers to the equilibrium dissociation constant of an inhibitor or competing ligand from its target. A higher Ki goes with lower affinity.

For this experiment, the target named is Carbonic anhydrase 9 (Homo sapiens, UniProt Q16790). The experiment can be described thus: Inhibition of transmembrane human carbonic anhydrase 9 by stopped flow CO2 hydration assay.

In turn, `NS(=O)(=O)c1ccc(-n2nnc(C(=O)O)c2-c2cccs2)cc1` displayed a Ki of 1310 nM.
Consider `CCOC(=O)c1nnn(-c2ccc(S(N)(=O)=O)cc2)c1-c1cccs1`, for which the affinity corresponds to a Ki of 237 nM.
Take `NS(=O)(=O)c1ccc(-n2nnc(CO)c2-c2ccccn2)cc1`: the affinity, expressed as Ki, was 14.3 nM. This Ki lies about 17-fold lower than the previous one.
For `CCOC(=O)c1nnn(-c2ccc(S(N)(=O)=O)cc2)c1-c1ccccn1`, the affinity corresponds to a Ki of 1420 nM. This Ki lies about 99-fold higher than the previous one.
`NNC(=O)c1nnn(-c2ccc(S(N)(=O)=O)cc2)c1-c1ccc(Br)cc1` displayed a Ki of 1350 nM.
`NC(=O)c1nnn(-c2ccc(S(N)(=O)=O)cc2)c1-c1cccs1` gave a Ki of 225 nM.
As for `Cc1ccc(-c2c(C(=O)O)nnn2-c2ccc(S(N)(=O)=O)cc2)cc1`, the figure is 1410 nM; as for `Cc1ccc(-c2c(C(=O)NN)nnn2-c2ccc(S(N)(=O)=O)cc2)cc1`, 738 nM.
For `NC(=O)c1nnn(-c2ccc(S(N)(=O)=O)cc2)c1-c1ccc(Br)cc1`, the Ki came to 256 nM.
Compound `NS(=O)(=O)c1ccc(-n2nnc(C(=O)O)c2-c2ccc(Br)cc2)cc1` came in with a Ki of 1410 nM.
On to `NS(=O)(=O)c1ccc(-n2nnc(CO)c2-c2ccc(Br)cc2)cc1`, for which the Ki turned out to be 1730 nM.
As to `NNC(=O)c1nnn(-c2ccc(S(N)(=O)=O)cc2)c1-c1ccc(F)cc1`, the Ki amounted to 2450 nM.
Compound `NNC(=O)c1nnn(-c2ccc(S(N)(=O)=O)cc2)c1-c1ccccn1` returned an inhibitory constant (Ki) of 2900 nM.
Regarding `NC(=O)c1nnn(-c2ccc(S(N)(=O)=O)cc2)c1-c1ccccn1`, the affinity, expressed as Ki, was 730 nM.
For `CCOC(=O)c1nnn(-c2ccc(S(N)(=O)=O)cc2)c1-c1ccc(F)cc1`, the affinity, expressed as Ki, was 633 nM.
Take `CCOC(=O)c1nnn(-c2ccc(S(N)(=O)=O)cc2)c1-c1ccc(C)cc1`: the affinity corresponds to a Ki of 198 nM. This Ki is about 3.2-fold lower than that of the compound before.
As for `CCOC(=O)c1nnn(-c2ccc(S(N)(=O)=O)cc2)c1-c1ccc(Cl)cc1`, the figure is 1480 nM; as for `Cc1ccc(-c2c(C(N)=O)nnn2-c2ccc(S(N)(=O)=O)cc2)cc1`, 73 nM.
`NS(=O)(=O)c1ccc(-n2nnc(C(=O)O)c2-c2ccc(Cl)cc2)cc1` came in with a Ki of 716 nM.
In the case of `NS(=O)(=O)c1ccc(-n2nnc(CO)c2-c2cccs2)cc1` it was 71.2 nM; in that of `NC(=O)c1nnn(-c2ccc(S(N)(=O)=O)cc2)c1-c1ccc(F)cc1`, 107 nM.
In turn, `NS(=O)(=O)c1ccc(-n2nnc(C(=O)O)c2-c2ccccn2)cc1` registered a Ki of 2090 nM.
`NNC(=O)c1nnn(-c2ccc(S(N)(=O)=O)cc2)c1-c1ccc(Cl)cc1` came in with a Ki of 909 nM.
On to `Cc1ccc(-c2c(CO)nnn2-c2ccc(S(N)(=O)=O)cc2)cc1`, for which the affinity, expressed as Ki, was 2330 nM.
In turn, `NS(=O)(=O)c1ccc(-n2nnc(CO)c2-c2ccc(F)cc2)cc1` registered a Ki of 2370 nM.
Compound `CCOC(=O)c1nnn(-c2ccc(S(N)(=O)=O)cc2)c1-c1ccc(Br)cc1` registered a Ki of 228 nM.
The compound `NS(=O)(=O)c1ccc(-n2nnc(C(=O)O)c2-c2ccc(F)cc2)cc1` returned a Ki of 1580 nM.
For `NS(=O)(=O)c1ccc(-n2nnc(CO)c2-c2ccc(Cl)cc2)cc1`, the Ki turned out to be 1210 nM. The Ki values of the last two compounds are within 1.5-fold of each other.
In turn, `NNC(=O)c1nnn(-c2ccc(S(N)(=O)=O)cc2)c1-c1cccs1` registered a Ki of 2830 nM.
Turning to `NC(=O)c1nnn(-c2ccc(S(N)(=O)=O)cc2)c1-c1ccc(Cl)cc1`, the Ki amounted to 117 nM.
